Experimental data as given in the supplement of paper PMC10307832.

Columns and labels:
Test in all cases: relative viability (nuclei count vs DMSO), 5 days (fraction); higher = more cells survive
Venetoclax + Crizotinib = compound: CC1(C)CCC(CN2CCN(c3ccc(C(=O)NS(=O)(=O)c4ccc(NCC5CCOCC5)c([N+](=O)[O-])c4)c(Oc4cnc5[nH]ccc5c4)c3)CC2)=C(c2ccc(Cl)cc2)C1 [Venetoclax] + C[C@@H](Oc1cc(-c2cnn(C3CCNCC3)c2)cnc1N)c1c(Cl)ccc(F)c1Cl [Crizotinib] (partner 1 µM)
How it was run: (§1)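 Each reported value is a median over duplicate plates. It expresses relative viability: treated-well nuclei count divided by vehicle-well nuclei count. Lung cancer cell lines in 1536-well plates were dosed by pin tool a day after seeding, alone with one drug or with a fixed anchor-drug dose plus five library-drug doses (not always all listed) in √10 steps, and nuclei were counted after 5 days.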

Selumetinib + Bortezomib = compound: Cn1cnc2c(F)c(Nc3ccc(Br)cc3Cl)c(C(=O)NOCCO)cc21 [Selumetinib] + CC(C)C[C@H](NC(=O)[C@H](Cc1ccccc1)NC(=O)c1cnccn1)B(O)O [Bortezomib] (partner 0.002 µM)
How it was run: as §1

Venetoclax + Bortezomib = compound: CC1(C)CCC(CN2CCN(c3ccc(C(=O)NS(=O)(=O)c4ccc(NCC5CCOCC5)c([N+](=O)[O-])c4)c(Oc4cnc5[nH]ccc5c4)c3)CC2)=C(c2ccc(Cl)cc2)C1 [Venetoclax] + CC(C)C[C@H](NC(=O)[C@H](Cc1ccccc1)NC(=O)c1cnccn1)B(O)O [Bortezomib] (partner 0.002 µM)
How it was run: as §1

Selumetinib + AZD7762 = compound: Cn1cnc2c(F)c(Nc3ccc(Br)cc3Cl)c(C(=O)NOCCO)cc21 [Selumetinib] + NC(=O)Nc1cc(-c2cccc(F)c2)sc1C(=O)N[C@H]1CCCNC1 [AZD7762] (partner 0.2 µM)
How it was run: as §1

Cell Line | relative viability (Venetoclax + Crizotinib; first compound 0.01 µM) | relative viability (Venetoclax + Crizotinib; first compound 0.03162 µM) | relative viability (Venetoclax + Crizotinib; first compound 0.1 µM) | relative viability (Venetoclax + Crizotinib; first compound 0.3162 µM) | relative viability (Venetoclax + Crizotinib; first compound 1 µM) | relative viability (Selumetinib + Bortezomib; first compound 0.02 µM) | relative viability (Selumetinib + Bortezomib; first compound 0.06325 µM) | relative viability (Selumetinib + Bortezomib; first compound 0.2 µM) | relative viability (Selumetinib + Bortezomib; first compound 0.6325 µM) | relative viability (Venetoclax + Bortezomib; first compound 0.01 µM) | relative viability (Venetoclax + Bortezomib; first compound 0.03162 µM) | relative viability (Venetoclax + Bortezomib; first compound 0.1 µM) | relative viability (Venetoclax + Bortezomib; first compound 0.3162 µM) | relative viability (Venetoclax + Bortezomib; first compound 1 µM) | relative viability (Selumetinib + AZD7762; first compound 0.02 µM) | relative viability (Selumetinib + AZD7762; first compound 0.06325 µM) | relative viability (Selumetinib + AZD7762; first compound 0.2 µM) | relative viability (Selumetinib + AZD7762; first compound 0.6325 µM)
NCI-H596 | 1.14 | 0.893 | 1.02 | 1.02 | 1.02 | 0.92 | 0.93 | 0.835 | 0.621 | 1.01 | 0.857 | 0.979 | 1.14 | 1.14 | 1.06 | 1.14 | 1.02 | 0.768
NCI-H1734 | 0.733 | 0.833 | 0.724 | 0.73 | 0.614 | 1.04 | 0.819 | 1.02 | 0.835 | 0.815 | 1.07 | 0.921 | 0.946 | 0.914 | 0.512 | 0.5 | 0.495 | 0.515
NCI-H1703 | 0.655 | 0.635 | 0.634 | 1.15 | 0.605 | 0.309 | 0.255 | 0.403 | 0.434 | 0.306 | 0.313 | 0.21 | 0.397 | 0.374 | 0.157 | 0.119 |  | 0.134
NCI-H1915 | 0.882 | 0.862 | 0.811 | 0.836 | 0.805 | 1.07 | 0.877 | 0.747 | 0.617 | 0.972 | 0.965 | 0.908 | 0.971 | 0.919 | 0.81 | 0.663 | 0.646 | 0.453
NCI-H838 | 0.815 | 0.854 | 0.8 | 0.88 | 0.795 | 0.695 | 0.59 | 0.679 | 0.513 | 0.949 | 0.957 | 0.73 | 0.801 | 0.797 | 0.87 | 0.844 | 0.878 | 0.824
HCC-15 | 0.814 | 0.839 | 0.709 | 0.742 | 0.617 | 0.842 | 0.677 | 0.559 | 0.424 | 1.05 | 1.04 | 0.964 | 1 | 0.875 | 0.996 | 0.808 | 1.01 | 0.631
NCI-H650 | 0.725 | 0.699 |  | 0.701 | 0.641 | 1.01 | 0.995 | 1.25 | 1.17 | 0.671 | 0.792 |  | 0.873 | 0.817 | 1.37 | 1.14 | 1.06 | 1.15
NCI-H1651 | 0.866 | 0.856 | 0.879 | 0.889 | 0.825 | 1.08 | 0.861 | 0.873 | 0.818 | 1.02 | 0.952 | 1.03 | 0.976 | 0.885 | 0.44 | 0.42 | 0.445 | 0.495
NCI-H2405 | 0.856 | 0.881 | 0.771 | 0.824 | 0.79 | 0.971 | 0.928 | 0.858 | 0.744 | 0.956 | 1.09 | 0.94 | 0.982 | 0.907 | 0.729 | 0.492 | 0.561 | 0.466
LU99A | 0.555 | 0.587 | 0.576 | 0.586 | 0.526 | 1.35 | 1.05 | 1.18 | 1.37 | 1.13 | 1.32 | 0.925 | 1.19 | 1.23 | 0.461 | 0.367 | 0.397 | 0.342
H3255 | 0.815 | 0.824 | 0.837 | 0.773 | 1.05 | 0.82 | 0.801 | 0.761 | 0.962 | 0.784 | 0.855 | 0.626 | 0.825 | 0.644 | 0.827 | 0.945 | 0.821 | 0.935
NCI-H1993 | 0.854 | 0.851 | 0.906 | 0.838 | 0.774 | 0.861 | 0.897 | 0.873 | 0.806 | 1.05 | 1.19 | 0.988 | 1.04 | 1.02 | 0.842 | 0.733 | 0.634 | 0.666
NCI-H322M | 0.988 | 0.838 | 0.912 | 0.894 | 0.878 | 1.05 | 1.22 | 1.01 | 0.98 | 1.37 | 1.18 | 1.27 | 1.2 | 1.2 | 0.453 | 0.443 | 0.45 | 0.527
NCI-H460 | 0.902 | 0.773 | 0.946 | 0.908 | 0.719 | 0.962 | 0.684 | 0.852 | 0.458 | 1.06 | 1.06 | 1.06 | 1.03 | 0.904 | 0.695 | 0.663 | 0.598 | 0.662
LC-2-ad | 0.46 | 0.465 | 0.439 | 0.466 | 0.51 | 1.05 | 1.01 | 0.831 | 0.943 | 0.834 | 1.02 | 0.968 | 0.907 | 0.94 | 0.687 | 0.633 | 0.572 | 0.477
PC-3 [JPC-3] | 0.896 | 0.987 | 1.04 | 0.965 | 0.969 | 0.822 | 0.813 | 0.669 | 0.551 | 0.764 | 0.822 | 0.794 | 0.771 | 0.829 | 0.656 | 0.676 | 0.57 | 0.678
CAL-12T | 0.65 | 0.567 | 0.595 | 0.527 | 0.555 | 0.768 | 0.935 | 0.849 | 0.772 | 0.976 | 1.14 | 0.954 | 0.901 | 0.877 | 0.64 | 0.574 | 0.566 | 0.568
